We go through nine compounds from PubChem BioAssay (NCI).

Common to all, as to assay: NCI tumour cell line growth inhibition, 48 h
Assay [1] has as its system UACC-257 melanoma.
Assay [2] deals with NCI-H460 lung.
The test system of assay [3] is RXF 393 renal.
The test system of assay [4] is MDA-MB-231 breast.
Assay [5] concerns TK-10 renal.
Assay [6] relates to LOX IMVI melanoma.
For assay [7], the system named is ACHN renal.
Assay [8] has as its system COLO 205 colon.
The test system of assay [9] is SNB-19 CNS.
In assay [10] the test system is MALME-3M melanoma.

SMILES strings stand for the structures.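 Compound exposure: 48 hours, 5 concentrations, 96-well plates. Here, GI50 denotes the concentration required for 50% inhibition of growth. TGI: total growth inhibition.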

For `Oc1cc2c(cc1C(c1ccc3c(c1)OCO3)N1CCN(C(c3ccc4c(c3)OCO4)c3cc4c(cc3O)OCO4)CC1)OCO2` (stereo unspecified), the TGI is 33.4 µM in [1]; more than 100 µM in assay [2]; more than 100 µM in [3]; 29.1 µM in assay [4]; 43.8 µM in assay [5]; 18.7 µM in assay [6]. Moreover, the TGI in assay [7] was found to be 26.6 µM; in assay [8], 90.8 µM; in assay [9] it was 43.6 µM; in assay [10], 38.9 µM.

In the case of `NC(=S)N/N=C/c1ccc(OC(=O)COc2ccccc2)cn1`, the GI50 was 14.7 µM in [1]; 5.04 µM in assay [2]; 5.34 µM in [3]; 8270 nM in assay [4]; more than 100000 nM in [5]; 3.48 µM in [6]. Besides, the GI50 in assay [7] is 3650 nM; in [8] it was 33.3 µM; in assay [9], 28.5 µM; in assay [10], 11.2 µM. Further, the TGI was 88.9 µM in [1]; 63.4 µM in [2]; more than 100 µM in assay [3]; more than 100 µM in [4]; more than 100 µM in [5]; more than 100 µM in assay [6]. Further, the TGI in assay [7], in assay [8], in assay [9] and in [10] was more than 100 µM each time.

Consider `Cc1[nH]c(=O)nc(N/N=C/c2ccc(Cl)cc2)c1C(=O)Nc1ccc(Cl)cc1`, for which the TGI in assay [1] was more than 94.6 µM; in assay [2] it was 39.7 µM; in [3] it was 32.9 µM; in assay [4], 26.2 µM; in assay [5], 56.9 µM; in assay [6] it was more than 90.8 µM. For the same compound, the TGI in assay [7] was more than 89.2 µM; in assay [8], more than 88.1 µM; in assay [9], more than 15.8 µM; in [10], 55.2 µM.

In the case of `CC(=O)OC1CC2(O)C(CCC3(C)C(c4ccc(=O)oc4)CCC32O)C2(C)CCC(OC3OC(CO)C(O)C(O)C3O)C=C12` (stereo unspecified), the GI50 in assay [1] was 0.0383 µM; in assay [2] it was less than 0.01 µM; in [3], 0.0199 µM; in [4], 68.4 nM; in assay [5], 22.6 nM; in assay [6] it was 0.0275 µM. Also, the GI50 in assay [7] was less than 10 nM; in assay [8], 0.0554 µM; in assay [9], 0.0461 µM; in assay [10], 0.0245 µM. Also, the TGI in [1] turned out to be 0.206 µM; in assay [2], 0.0282 µM; in [3], 0.0538 µM; in [4] it was 0.396 µM; in [5], 0.201 µM; in [6] it was 0.109 µM. The TGI was determined as 0.036 µM in [7], 0.274 µM in assay [8], 0.165 µM in assay [9] and 0.0593 µM in assay [10].

In the case of `O=C(Nc1nc(-c2ccccc2)cs1)c1cc(O)c(O)c(O)c1`, the GI50 in [1] is 7.84 µM; in assay [2], 3.43 µM; in [3], 3.55 µM; in assay [4], 1580 nM; in [5], 3620 nM; in [6] it was 3.62 µM. Also, the GI50 in [7] is 2470 nM; in assay [8], 10.8 µM; in assay [9] it was 2.61 µM; in assay [10] it was 8.86 µM. Further, the TGI in assay [1] came out at 52.1 µM; in assay [2] it was 17 µM; in [3], 19.7 µM; in assay [4], 24.4 µM; in [5] it was 59.4 µM; in [6], 32.1 µM. Moreover, the TGI in assay [7] was 56.3 µM; in assay [8], 30.1 µM; in assay [9], more than 100 µM; in [10] it was 71.1 µM.

Regarding `Cc1ccc(S(=O)(=O)NNC(C[N+](=O)[O-])c2ccccc2)cc1` (stereo unspecified), the TGI in [1] is 37.5 µM; in [2], 45.1 µM; in assay [3], 11.2 µM; in [4] it was 81.3 µM; in [5], 58.8 µM; in assay [6], more than 100 µM. Further, the TGI is 40.9 µM in assay [7], 30.8 µM in assay [8], 30.4 µM in assay [9] and 71.3 µM in [10].

Take `O=C1c2ccccc2C(=O)c2sc(Nc3ccc(Cl)cc3)nc21`: the TGI was found to be 3.28 µM in assay [1]; 11.7 µM in assay [2]; 3.65 µM in [3]; 7.38 µM in assay [4]; 14.6 µM in assay [5]; 2.91 µM in assay [6]. For the same compound, the TGI in assay [7] stood at 3.06 µM; in [8], 17.7 µM; in assay [9], 9.71 µM; in assay [10], 3.25 µM. Besides, the GI50 in assay [4] is 1170 nM.

For `N#CSCC1CC(O)(c2ccccc2)CC(c2ccc(Cl)cc2)O1` (stereo unspecified), the GI50 in assay [1] is 3.29 µM; in assay [2], 2.33 µM; in [3] it was 1.94 µM; in [4] it was 2800 nM; in [5] it was 2130 nM; in [6], 1.59 µM. Besides, the GI50 was 2780 nM in assay [7], 1.91 µM in assay [8], 6.9 µM in [9] and 2.65 µM in assay [10]. Also, the TGI in assay [1] was 9.32 µM; in assay [2], 6.38 µM; in assay [3], 3.72 µM; in assay [4], 11.2 µM; in assay [5] it was 4.33 µM; in assay [6], 2.95 µM. Moreover, the TGI in [7] came out at 8.25 µM; in assay [8], 3.92 µM; in assay [9], 19.7 µM; in [10], 7.35 µM.

`COc1ccc2c(c1)C(=O)c1c-2n(CCCN=[N+]=[N-])c(=O)c2cc(N)ccc12`: the GI50 is more than 100 µM in assay [1]; more than 100 µM in [2]; 57.6 µM in assay [3]; more than 100000 nM in [4]; more than 100000 nM in assay [5]; more than 100 µM in assay [6]. For the same compound, the GI50 in assay [7] was more than 100000 nM; in assay [8], more than 100 µM; in assay [9] it was more than 100 µM; in [10], more than 100 µM. Further, the TGI in [1], in [2], in assay [3], in assay [4], in assay [5] and in assay [6] was more than 100 µM each time. Moreover, the TGI in assay [7], in assay [8], in [9] and in [10] was more than 100 µM each time.
